What was measured:
[1] = Boiling temperature at pressure P; conditions: Liquid, distillation unit - dew point temperature
[2] = 101.33 kPa, Liquid, Vibrating tube method

C1CN=C2CCCN2C1 [1,5-diazabicyclo[4.3.0]non-5-ene]
Conditions | Boiling temperature at pressure P [°C] | mass density [kg/m3]
[1], 0.71 kPa | 85.69 | –
[1], 0.91 kPa | 90.86 | –
[1], 0.92 kPa | 91.46 | –
[1], 1.39 kPa | 98.20 | –
[1], 1.41 kPa | 98.90 | –
[1], 1.87 kPa | 105.99 | –
[1], 2.81 kPa | 114.1 | –
[1], 2.86 kPa | 114.66 | –
[1], 3.37 kPa | 117.81 | –
[1], 3.88 kPa | 120.18 | –
[1], 5.11 kPa | 127.00 | –
[1], 5.53 kPa | 128.91 | –
[1], 6.11 kPa | 131.70 | –
[1], 7.15 kPa | 134.78 | –
[1], 8.11 kPa | 139.00 | –
[1], 9.4 kPa | 142.40 | –
[1], 10.12 kPa | 144.50 | –
[1], 12.14 kPa | 149.60 | –
[2], 293.15 K | – | 1037.59
[2], 298.15 K | – | 1033.58
[2], 303.15 K | – | 1029.56
[2], 308.15 K | – | 1025.52
[2], 313.15 K | – | 1021.49
[2], 318.15 K | – | 1017.4
[2], 323.15 K | – | 1013.33

C1CCC2=NCCCN2CC1 [1,8-diaza-7-bicyclo[5.4.0]undecene]
[1]
Conditions | Boiling temperature at pressure P [°C]
0.51 kPa | 102.62
0.71 kPa | 110.30
1.01 kPa | 116.2
1.31 kPa | 122.00
1.51 kPa | 124.60
1.71 kPa | 127.70
2.01 kPa | 130.80
2.31 kPa | 133.90
2.51 kPa | 136
3.01 kPa | 139.72
3.31 kPa | 143.00
3.51 kPa | 143.80
4.01 kPa | 147.87
4.21 kPa | 149.07
4.51 kPa | 150.98
5.01 kPa | 153.77
5.31 kPa | 154.70
6.31 kPa | 159.30
7.31 kPa | 164.1

— the NIST ThermoML archive (doi:10.1016/j.fluid.2015.08.008)
